Key:
[1] = test system: HGSOC primary and metastatic tumors; assay: Transgenic TKO mouse model of HGSOC: growth and progression of primary and metastatic tumors after UCHL1 inhibition; format: in vivo
Excerpt: Triple mutant (TKO) mice are Pten and Dicer knockout and overexpress mutant p53 R172H (corresponding to human R175H mutant) (Pten−/− Dicer−/− and p53-R172H). These mice spontaneously developed primary tumors in the fallopian tube at age 4 months, which metastasize to other organs by 5-6 months. This model recapitulates metastatic tumor growth as in ovarian cancer patients. […] The tumors are circled using a dotted line and/or indicated with arrows.
FIGS. 11B and 11C illustrate the reduction in primary HGSOC tumor size with LDN treatment in mice aged 4-6 months.

[2] = test system: PSMA7; assay: PSMA7 RNA and protein levels in treated TKO mice; format: in vivo, mouse; conditions: treated TKO mice vs untreated TKO control, FIG. 12E
[3] = test system: Proteasome; assay: Proteasome activity in treated TKO mice; format: in vivo, mouse; conditions: treated TKO mice vs TKO CTL mice, FIG. 12E
[4] = test system: UCHL1; conditions: cited from earlier work
[5] = test system: UCHL1; assay: Relative UCHL1 expression (qPCR) after DNA methylase inhibitor treatment in ovarian cancer cells; format: cell-based; conditions: 200 μM, day 2, HGSOC cell lines with mutant p53, FIG. 7I
Protocol: FIG. 7A depicts relative UCHL1 expression (qPCR) after treatment with DNA methylase inhibitor, 5AzaDC (200 μM, day3) in ovarian cancer cells. The following cell cultures were included in the analysis: HeyA8 (WT p53), SKOV3 (p53 null), OVCAR5 (p53 null), Kuramochi (mutant p53), and OVCAR4 (mutant p53).
FIG. 7H depicts relative UCHL1 expression (qPCR) after treatment with DNA methylase inhibitor, 5AzaDC (200 μM, day 2) in ovarian cancer cells with wild-type p53 (HeyA8 and A2780), ovarian cancer cells with p53-null mutations (OVCAR5 and SKOV3) and normal fallopian tube cells with wild-type p53 (FTE282).
FIG. 7I illustrates that no change in UCHL1 levels were detected with treatment with DNA methylase inhibitor 5AzaDC (200 μM, day 2) in HGSOC cell lines with mutant p53.

Structure (SMILES) | primary tumor ([1]; TKO mice (Pten-/- Dicer-/- p53-R172H) vs TKO control, FIG. 11A) | metastatic tumors in the omentum, diaphragm, mesentery, and peritoneal wall ([1]; TKO mice vs TKO control, FIG. 11A) | primary HGSOC tumor size ([1]; mice aged 4-6 months, FIGS. 11B and 11C) | PSMA7 RNA levels [2] | PSMA7 protein levels [2] | Proteasome activity [3] | mode of UCHL1 inhibition [4] | UCHL1 levels [5]
CC(=O)O/N=C1\C(=O)N(Cc2cc(Cl)ccc2Cl)c2ccc(Cl)cc21 [LDN-57444] | visible reduction | absence | reduction | reduced | reduced | significantly reduced | competitive, reversible, active site-directed inhibitor | –
Nc1ncn([C@H]2C[C@H](O)[C@@H](CO)O2)c(=O)n1 [5AzaDC] | – | – | – | – | – | – | – | no change
